# Data as given in paper PMC10175918 (Communications Biology, 2023).
# Where two headings read alike, the source gives them in different places.
# What was measured:
# Assay in all cases: TGFα-shedding assay-based GPCR screening with chimeric Gα subunit proteins
# Assay type in all cases: cell-based
# 348 GPCRs [1] = molecular target: T1, 348 GPCRs (Homo sapiens, UniProt Q86SQ4); conditions: 10µM, Favipiravir 100μM
# T1 construct: expressed in transfected cells; host or cells: HEK293A
# T1 sequence (Q86SQ4 38-1221): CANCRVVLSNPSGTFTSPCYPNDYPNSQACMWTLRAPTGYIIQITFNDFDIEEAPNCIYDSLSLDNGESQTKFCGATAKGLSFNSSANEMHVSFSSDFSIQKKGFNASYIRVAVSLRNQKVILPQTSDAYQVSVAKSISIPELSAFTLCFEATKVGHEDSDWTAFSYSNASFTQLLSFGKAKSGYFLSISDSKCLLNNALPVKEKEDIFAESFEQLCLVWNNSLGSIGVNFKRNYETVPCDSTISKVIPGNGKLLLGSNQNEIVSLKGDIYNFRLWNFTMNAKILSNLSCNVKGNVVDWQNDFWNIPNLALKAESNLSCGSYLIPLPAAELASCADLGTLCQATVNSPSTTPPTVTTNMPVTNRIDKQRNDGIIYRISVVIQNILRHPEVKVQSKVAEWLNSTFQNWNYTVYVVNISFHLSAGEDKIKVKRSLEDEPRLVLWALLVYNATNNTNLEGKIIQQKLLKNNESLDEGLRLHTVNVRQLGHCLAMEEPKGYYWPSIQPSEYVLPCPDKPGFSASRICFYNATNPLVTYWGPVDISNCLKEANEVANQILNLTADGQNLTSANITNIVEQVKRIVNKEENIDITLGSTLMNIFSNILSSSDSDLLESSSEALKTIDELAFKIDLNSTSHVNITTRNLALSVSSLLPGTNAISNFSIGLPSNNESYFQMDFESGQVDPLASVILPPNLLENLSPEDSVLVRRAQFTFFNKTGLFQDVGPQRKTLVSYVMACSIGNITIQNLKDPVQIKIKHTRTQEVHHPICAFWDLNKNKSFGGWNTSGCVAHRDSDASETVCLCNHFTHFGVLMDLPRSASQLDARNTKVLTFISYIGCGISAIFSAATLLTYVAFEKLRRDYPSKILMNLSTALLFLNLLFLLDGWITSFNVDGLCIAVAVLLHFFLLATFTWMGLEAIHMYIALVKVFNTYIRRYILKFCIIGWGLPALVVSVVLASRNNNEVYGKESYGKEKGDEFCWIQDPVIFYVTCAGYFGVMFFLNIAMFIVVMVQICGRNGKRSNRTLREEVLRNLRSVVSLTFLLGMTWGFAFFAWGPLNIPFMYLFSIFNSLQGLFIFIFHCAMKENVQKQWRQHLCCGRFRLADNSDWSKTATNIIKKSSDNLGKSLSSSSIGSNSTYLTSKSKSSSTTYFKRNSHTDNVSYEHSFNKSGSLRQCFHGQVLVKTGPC
# 348 GPCRs [2] = molecular target: T2, 348 GPCRs (Homo sapiens, UniProt P46095)
# T2 construct: expressed in transfected cells; host or cells: HEK293A
# T2 sequence (P46095 whole entry): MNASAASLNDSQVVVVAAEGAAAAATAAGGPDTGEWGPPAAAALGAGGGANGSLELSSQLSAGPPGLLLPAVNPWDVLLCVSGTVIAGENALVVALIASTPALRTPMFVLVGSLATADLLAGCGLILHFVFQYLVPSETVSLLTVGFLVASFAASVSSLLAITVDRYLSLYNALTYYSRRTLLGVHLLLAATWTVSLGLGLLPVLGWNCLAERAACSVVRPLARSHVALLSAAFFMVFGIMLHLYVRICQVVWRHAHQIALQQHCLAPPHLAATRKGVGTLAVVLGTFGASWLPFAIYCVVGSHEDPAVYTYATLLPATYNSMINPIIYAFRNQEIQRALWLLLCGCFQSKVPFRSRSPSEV
# 348 GPCRs [3] = molecular target: T3, 348 GPCRs (Homo sapiens, UniProt P13945); conditions: 10µM, Favipiravir 100μM
# T3 construct: expressed in transfected cells; host or cells: HEK293A
# T3 sequence (P13945 whole entry): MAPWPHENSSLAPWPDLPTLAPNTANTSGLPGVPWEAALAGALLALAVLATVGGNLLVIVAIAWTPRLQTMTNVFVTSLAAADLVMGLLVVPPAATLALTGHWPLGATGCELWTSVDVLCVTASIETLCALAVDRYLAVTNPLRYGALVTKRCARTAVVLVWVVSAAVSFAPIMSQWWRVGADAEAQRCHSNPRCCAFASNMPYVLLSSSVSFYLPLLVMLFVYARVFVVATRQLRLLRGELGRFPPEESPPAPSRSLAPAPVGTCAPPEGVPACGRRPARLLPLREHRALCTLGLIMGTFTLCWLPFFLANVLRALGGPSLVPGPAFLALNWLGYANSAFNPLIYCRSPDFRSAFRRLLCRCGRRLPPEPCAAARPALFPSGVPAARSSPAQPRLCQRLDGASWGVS
# 348 GPCRs [4] = molecular target: T4, 348 GPCRs (Homo sapiens, UniProt Q8TDS7); conditions: 10µM, Favipiravir 100μM
# T4 construct: expressed in transfected cells; host or cells: HEK293A
# T4 sequence (Q8TDS7 whole entry): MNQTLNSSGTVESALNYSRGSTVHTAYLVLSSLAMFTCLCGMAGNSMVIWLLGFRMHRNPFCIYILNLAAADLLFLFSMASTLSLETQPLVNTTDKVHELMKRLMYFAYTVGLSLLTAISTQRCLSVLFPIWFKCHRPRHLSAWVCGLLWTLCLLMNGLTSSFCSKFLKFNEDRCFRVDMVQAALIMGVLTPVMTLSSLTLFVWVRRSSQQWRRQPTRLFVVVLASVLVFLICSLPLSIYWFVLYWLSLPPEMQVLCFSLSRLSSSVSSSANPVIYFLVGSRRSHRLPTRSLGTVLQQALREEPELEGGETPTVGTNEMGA
# 348 GPCRs [5] = molecular target: T5, 348 GPCRs (Homo sapiens, UniProt Q86SM5); conditions: 10µM, Favipiravir 100μM
# T5 construct: expressed in transfected cells; host or cells: HEK293A
# T5 sequence (Q86SM5 1-289): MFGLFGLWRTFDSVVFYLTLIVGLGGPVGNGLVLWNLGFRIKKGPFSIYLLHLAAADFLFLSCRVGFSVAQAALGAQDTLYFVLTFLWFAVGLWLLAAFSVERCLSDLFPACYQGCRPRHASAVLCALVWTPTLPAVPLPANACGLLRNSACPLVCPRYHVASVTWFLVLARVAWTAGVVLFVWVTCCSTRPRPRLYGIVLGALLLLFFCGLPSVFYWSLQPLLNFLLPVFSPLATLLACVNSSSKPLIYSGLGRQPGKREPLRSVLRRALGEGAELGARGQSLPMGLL
# 348 GPCRs [6] = molecular target: T6, 348 GPCRs (Homo sapiens, UniProt Q9UNW8); conditions: G2A (GPR132); 10µM, Favipiravir 100μM
# T6 construct: expressed in transfected cells; host or cells: HEK293A
# T6 sequence (Q9UNW8 1-380): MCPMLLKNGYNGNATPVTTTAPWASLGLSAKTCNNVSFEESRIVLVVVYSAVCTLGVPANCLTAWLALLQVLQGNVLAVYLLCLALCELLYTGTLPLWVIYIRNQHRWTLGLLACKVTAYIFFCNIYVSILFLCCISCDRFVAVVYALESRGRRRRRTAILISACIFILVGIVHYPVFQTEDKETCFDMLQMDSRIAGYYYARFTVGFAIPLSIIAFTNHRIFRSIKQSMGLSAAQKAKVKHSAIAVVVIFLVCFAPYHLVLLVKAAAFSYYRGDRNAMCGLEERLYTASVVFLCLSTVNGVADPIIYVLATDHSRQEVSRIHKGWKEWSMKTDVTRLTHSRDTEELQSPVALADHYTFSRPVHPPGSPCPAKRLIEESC
# 348 GPCRs [7] = molecular target: T7, 348 GPCRs (Homo sapiens, UniProt Q15722); conditions: 10µM, Favipiravir 100μM
# T7 construct: expressed in transfected cells; host or cells: HEK293A
# T7 sequence (Q15722 whole entry): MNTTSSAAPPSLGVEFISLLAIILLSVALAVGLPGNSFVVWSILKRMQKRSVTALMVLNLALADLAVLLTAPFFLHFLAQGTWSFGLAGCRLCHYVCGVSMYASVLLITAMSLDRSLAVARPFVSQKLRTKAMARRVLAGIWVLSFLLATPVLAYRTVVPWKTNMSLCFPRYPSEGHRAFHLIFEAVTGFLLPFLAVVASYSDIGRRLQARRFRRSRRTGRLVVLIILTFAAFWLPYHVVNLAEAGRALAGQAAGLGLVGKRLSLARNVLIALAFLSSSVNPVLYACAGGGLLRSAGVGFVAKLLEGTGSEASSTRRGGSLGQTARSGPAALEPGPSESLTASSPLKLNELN
# 348 GPCRs [8] = molecular target: T8, 348 GPCRs (Homo sapiens, UniProt P20309)
# T8 construct: expressed in transfected cells; host or cells: HEK293A
# T8 sequence (P20309 whole entry): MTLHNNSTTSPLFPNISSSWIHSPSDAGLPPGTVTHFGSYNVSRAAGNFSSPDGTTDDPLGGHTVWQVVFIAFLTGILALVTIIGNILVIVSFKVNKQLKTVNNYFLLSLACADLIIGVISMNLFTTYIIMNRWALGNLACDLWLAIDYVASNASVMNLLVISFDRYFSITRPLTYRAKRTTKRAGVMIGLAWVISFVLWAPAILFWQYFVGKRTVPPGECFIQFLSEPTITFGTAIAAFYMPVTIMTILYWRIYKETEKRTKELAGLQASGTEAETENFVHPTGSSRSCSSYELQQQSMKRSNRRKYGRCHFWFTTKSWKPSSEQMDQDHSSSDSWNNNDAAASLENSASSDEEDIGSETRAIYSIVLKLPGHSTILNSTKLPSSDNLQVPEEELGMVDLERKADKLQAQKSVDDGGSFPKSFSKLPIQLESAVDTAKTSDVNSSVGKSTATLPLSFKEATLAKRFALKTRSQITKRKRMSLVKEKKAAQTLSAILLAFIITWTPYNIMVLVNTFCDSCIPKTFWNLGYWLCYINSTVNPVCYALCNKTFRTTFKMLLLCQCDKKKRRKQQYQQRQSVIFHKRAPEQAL
# 348 GPCRs [9] = molecular target: T9, 348 GPCRs (Homo sapiens, UniProt Q14416); conditions: 10µM, Favipiravir 100μM
# T9 construct: expressed in transfected cells; host or cells: HEK293A
# T9 sequence (Q14416 19-872): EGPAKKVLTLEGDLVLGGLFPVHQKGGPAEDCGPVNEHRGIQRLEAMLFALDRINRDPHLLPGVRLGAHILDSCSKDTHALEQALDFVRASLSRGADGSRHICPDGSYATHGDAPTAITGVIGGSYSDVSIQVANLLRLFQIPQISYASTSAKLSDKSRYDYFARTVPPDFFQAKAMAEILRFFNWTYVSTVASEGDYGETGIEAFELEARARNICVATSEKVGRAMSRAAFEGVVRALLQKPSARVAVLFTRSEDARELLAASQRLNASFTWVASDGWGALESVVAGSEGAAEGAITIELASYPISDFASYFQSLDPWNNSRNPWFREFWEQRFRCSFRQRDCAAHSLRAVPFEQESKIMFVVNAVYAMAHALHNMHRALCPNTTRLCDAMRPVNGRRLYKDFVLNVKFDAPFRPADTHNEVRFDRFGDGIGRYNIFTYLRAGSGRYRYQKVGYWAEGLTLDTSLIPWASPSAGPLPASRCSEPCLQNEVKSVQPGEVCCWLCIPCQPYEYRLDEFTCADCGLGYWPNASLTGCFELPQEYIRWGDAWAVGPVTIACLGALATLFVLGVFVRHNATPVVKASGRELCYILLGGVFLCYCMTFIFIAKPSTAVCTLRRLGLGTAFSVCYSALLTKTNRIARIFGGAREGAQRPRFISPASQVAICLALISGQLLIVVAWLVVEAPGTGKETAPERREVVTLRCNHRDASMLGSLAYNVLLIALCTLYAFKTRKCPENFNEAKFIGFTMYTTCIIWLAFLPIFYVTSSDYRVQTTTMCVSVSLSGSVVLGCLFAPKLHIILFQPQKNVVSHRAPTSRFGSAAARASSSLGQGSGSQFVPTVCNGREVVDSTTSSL
# 348 GPCRs [10] = molecular target: T10, 348 GPCRs (Homo sapiens, UniProt Q9HC97); conditions: 10µM, Favipiravir 100μM
# T10 construct: expressed in transfected cells; host or cells: HEK293A
# T10 sequence (Q9HC97 whole entry): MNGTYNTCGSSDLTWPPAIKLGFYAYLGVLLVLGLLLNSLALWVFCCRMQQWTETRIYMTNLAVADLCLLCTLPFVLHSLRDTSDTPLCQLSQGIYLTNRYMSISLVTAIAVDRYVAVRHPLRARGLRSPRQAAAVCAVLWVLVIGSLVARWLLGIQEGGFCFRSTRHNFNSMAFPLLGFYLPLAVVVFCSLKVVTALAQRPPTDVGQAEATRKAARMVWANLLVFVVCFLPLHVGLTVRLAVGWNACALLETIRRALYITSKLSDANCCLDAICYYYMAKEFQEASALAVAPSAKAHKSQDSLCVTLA
# [11] = GPR126 (Adhesion G Protein-Coupled Receptor G6 (ADGRG6)), read-out: % GPCR activation compared to TPA
# [12] = GPCR GPR6 (G protein-coupled receptor 6), read-out: % GPCR activation compared to TPA
# [13] = ADRB3 (adrenoceptor beta 3), read-out: % GPCR activation compared to TPA
# [14] = MRGPRD (MAS-related GPR, member D), read-out: % GPCR activation compared to TPA
# [15] = MRGPRG (MAS-related GPR, member G), read-out: % GPCR activation compared to TPA
# [16] = LTB4R (leukotriene B4 receptor), read-out: % GPCR activation compared to TPA
# [17] = GPCR M3 (Muscarinic acetylcholine receptor M3), read-out: % GPCR activation compared to TPA
# [18] = GRM2 (glutamate metabotropic receptor 2), read-out: % GPCR activation compared to TPA
# [19] = GPR35 (G protein-coupled receptor 35), read-out: % GPCR activation compared to TPA
# [20] = read-out: % GPCR activation compared to TPA, GPR126 (Adhesion G Protein-Coupled Receptor G6 (ADGRG6))
# [21] = read-out: % GPCR activation compared to TPA, GPCR GPR6 (G protein-coupled receptor 6)
# [22] = read-out: % GPCR activation compared to TPA, ADRB3 (adrenoceptor beta 3)
# [23] = read-out: % GPCR activation compared to TPA, MRGPRD (MAS-related GPR, member D)
# [24] = read-out: % GPCR activation compared to TPA, MRGPRG (MAS-related GPR, member G)
# [25] = read-out: % GPCR activation compared to TPA, LTB4R (leukotriene B4 receptor)
# [26] = read-out: % GPCR activation compared to TPA, GPCR M3 (Muscarinic acetylcholine receptor M3)
# [27] = read-out: % GPCR activation compared to TPA, GRM2 (glutamate metabotropic receptor 2)
# [28] = read-out: % GPCR activation compared to TPA, GPR35 (G protein-coupled receptor 35)
Structure (SMILES),activation at 100 µM (348 GPCRs [1]; [11]) [%],activation at 10 µM (348 GPCRs [2]; [12]) [%],activation at 10 µM (348 GPCRs [3]; [13]) [%],activation at 100 µM (348 GPCRs [4]; [14]) [%],activation at 100 µM (348 GPCRs [5]; [15]) [%],% GPCR activation compared to TPA (348 GPCRs [6]) [%],activation at 10 µM (348 GPCRs [7]; [16]) [%],activation at 10 µM (348 GPCRs [8]; [17]) [%],activation at 10 µM (348 GPCRs [9]; [18]) [%],activation at 10 µM (348 GPCRs [10]; [19]) [%],activation at 100 µM (348 GPCRs [1]; [20]) [%],activation at 10 µM (348 GPCRs [2]; [21]) [%],activation at 10 µM (348 GPCRs [3]; [22]) [%],activation at 100 µM (348 GPCRs [4]; [23]) [%],activation at 100 µM (348 GPCRs [5]; [24]) [%],activation at 10 µM (348 GPCRs [7]; [25]) [%],activation at 10 µM (348 GPCRs [8]; [26]) [%],activation at 10 µM (348 GPCRs [9]; [27]) [%],activation at 10 µM (348 GPCRs [10]; [28]) [%],further results
N#C[C@@]1(c2ccc3c(N)ncnn23)O[C@H](CO)[C@@H](O)[C@H]1O [GS441524],-3.47,5.11,0.201,-4.53,-1.34,-8.135,0.849,3.5,0.673,4.18,,,,,,,,,,
CC(C)OC(=O)[C@H](C)N[P@](=O)(OC[C@H]1O[C@@H](n2ccc(=O)[nH]c2=O)[C@](C)(F)[C@@H]1O)Oc1ccccc1 [sofosbuvir],,,,,,-1.375,,,,,-2.49,-0.69,-0.333,4.12,-0.28,0.62,-1.32,-2.27,-7.86,
CCC(CC)COC(=O)[C@H](C)N[P@](=O)(OC[C@H]1O[C@@](C#N)(c2ccc3c(N)ncnn23)[C@H](O)[C@@H]1O)Oc1ccccc1 [remdesivir],,,,,,10.99,,,,,-0.536,7.41,-0.789,0.905,-0.00101,-0.224,2.85,1.1,0.537,
CC(C)C(=O)OC[C@H]1O[C@@H](n2ccc(NO)nc2=O)[C@H](O)[C@@H]1O [molnupiravir],-3.31,-0.366,-0.737,-3.12,-1.58,-1.8016,-0.697,-0.147,0.98,-3.01,,,,,,,,,,
"NC(=O)c1nc(F)cnc1O [favipiravir, 6-fluoro-3-hydroxy-2-pyrazinecarboxamide]",-2.03,,-0.975,-0.473,-0.36,7.4,-0.299,,-0.721,3,,,,,,,,,,"activation at 100 µM (348 GPCRs [2]; GPCR GPR6 (G protein-coupled receptor 6), 100μM, read-out: % GPCR activation compared to TPA): 1.83%; activation at 100 µM (348 GPCRs [8]; GPCR M3 (Muscarinic acetylcholine receptor M3), 100μM, read-out: % GPCR activation compared to TPA): 0.164%"
